Assay results: patent US6908930B2, “4-substituted 7-AZA-indolin-2-ones and their use as protein kinase inhibitors” (Sugen, Inc., priority 1999, dated 2005)
pIC50: −log10 of the molar value. Where a name gives a salt, the structure may show the parent alone.

Assays:
EGFR = biological target: T1, EGFR (Homo sapiens, UniProt P00533); assay: Assay for modulation of EGFR activity (ELISA); assay type: biochemical; conditions: for pIC50: read-out: bio EGFR IC50
T1 construct: A431 […] cell lysate is stored at −80° C; host or cells: A431 cell lysate
T1 sequence (P00533 25-1210): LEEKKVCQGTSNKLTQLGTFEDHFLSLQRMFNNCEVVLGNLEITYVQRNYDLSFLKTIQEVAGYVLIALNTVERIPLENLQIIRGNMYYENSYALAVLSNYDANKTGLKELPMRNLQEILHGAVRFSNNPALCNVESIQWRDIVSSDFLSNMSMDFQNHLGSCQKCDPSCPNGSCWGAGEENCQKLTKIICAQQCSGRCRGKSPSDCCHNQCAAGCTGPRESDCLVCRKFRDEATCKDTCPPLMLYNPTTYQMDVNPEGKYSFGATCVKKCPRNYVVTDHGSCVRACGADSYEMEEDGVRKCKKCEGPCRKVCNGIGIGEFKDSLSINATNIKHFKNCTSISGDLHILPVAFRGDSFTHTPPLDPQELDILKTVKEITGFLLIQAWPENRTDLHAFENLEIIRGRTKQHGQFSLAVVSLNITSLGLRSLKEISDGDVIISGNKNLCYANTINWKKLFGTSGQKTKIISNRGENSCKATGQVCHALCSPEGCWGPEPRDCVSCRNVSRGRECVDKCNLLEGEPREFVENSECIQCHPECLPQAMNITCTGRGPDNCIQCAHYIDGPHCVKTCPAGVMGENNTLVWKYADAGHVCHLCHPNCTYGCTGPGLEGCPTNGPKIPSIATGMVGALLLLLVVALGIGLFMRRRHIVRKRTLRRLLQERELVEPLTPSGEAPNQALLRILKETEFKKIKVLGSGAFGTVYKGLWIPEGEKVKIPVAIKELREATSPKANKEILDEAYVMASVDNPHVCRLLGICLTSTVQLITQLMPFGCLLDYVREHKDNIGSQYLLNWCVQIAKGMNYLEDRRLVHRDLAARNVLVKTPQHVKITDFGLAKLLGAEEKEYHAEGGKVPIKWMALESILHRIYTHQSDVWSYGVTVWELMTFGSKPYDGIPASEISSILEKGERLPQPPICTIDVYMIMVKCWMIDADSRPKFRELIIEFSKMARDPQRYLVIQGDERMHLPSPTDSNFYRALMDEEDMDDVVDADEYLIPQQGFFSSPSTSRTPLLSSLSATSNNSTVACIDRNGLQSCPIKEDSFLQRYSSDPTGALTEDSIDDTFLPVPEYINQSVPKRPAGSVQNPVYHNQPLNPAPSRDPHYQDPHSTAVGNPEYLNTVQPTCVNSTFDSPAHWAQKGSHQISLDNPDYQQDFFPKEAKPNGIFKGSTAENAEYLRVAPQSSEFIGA
Protocol: Using the following reagents, supplies, and method, the ability of compounds of the invention to modulate the in vitro activity of EGFR can be readily determined in an ELISA.
A431 […] cell lysate is stored at −80° C.
ATP/MnCl2 phosphorylation mix is prepared by adding 300 μL of 1.0 mM ATP and […] of 1M MnCl2 to 9.2 mL of dH2O and mixing. Ten mL of phosphorylation mix is enough for about 6 assay plates. Note that the mixture should be made fresh and kept on ice immediately before use, and that although the preferred ATP is fresh from powder stock, any remaining stock solution of ATP may be frozen at −20° C. in small aliquots to be used at a later time.
(§1) Coat Corning 96 well ELISA plates with 0.5 μg per well with SUMO1 in a volume of 100 μL PBS overnight, at 4° C. Remove unbound SUMO1 from wells by inverting plate to remove liquid. Wash 1× with distilled H2O by filling wells. Pat the plate on a paper towel to remove excess liquid.
Add 150 μL of Blocking Buffer to each well. Incubate for 30 minutes at room temperature, with shaking. Wash plate 3× with deionized water, then once with TBST. Pat plate on a paper towel to remove excess liquid and bubbles.
Dilute lysate in PBS (7 μg lysate/[…]) and add 100 μL of diluted lysate to each well. Shake at room temperature for 60 minutes. Wash 1× with distilled H2O by filling wells. Pat the plate on a paper towel to remove excess liquid.
Add 120 μL TBST to ELISA plate containing captured EGFR.
Dilute drugs/extracts 1:10 (unless specified otherwise) in TBST in 96-well polypropylene plates. (i.e., 10 μL compound+90 μL TBST). Add 13.5 μL diluted drugs/extracts to ELISA plate. […] Incubate for 30 minutes while shaking at room temperature.
Approximately 150 μL final volume in well with 3 uM ATP/5 mM MnCl2 final concentration in well. Incubate 5 minutes while shaking. Note that this is a timed event. It is critical that ATP/MnCl2 phosphorylates the receptor for only 5 minutes. It is best to add the ATP/MnCl2 with an automated 96 place pipettor workstation, then 5 minutes later stop the reaction with EDTA using the same workstation. Alternatively, addition can be performed using a 12 channel pipettor 1 row at a time, leaving 20 seconds between each row so that the reaction may be stopped with EDTA exactly 5 minutes later (this depends on the number of plates being phosphorylated in one batch). Shake between each addition.
[…] This is done using either the same work station as above, or the same timing method employed with the 12 channel pipettor. After the EDTA has been added, shake for 1 minute. Wash 4× with deionized water, twice with TBST.
Add 100 μL per well of anti-phosphotyrosine (1:3000 dilution in TBST). Incubate 30-45 minutes at room temperature, with shaking. Wash 1× with distilled H2O by filling wells. Pat the plate on a paper towel to remove excess liquid.
Incubate 30 minutes at room temperature, with shaking. Wash 1× with distilled H2O by filling wells. Pat the plate on a paper towel to remove excess liquid.
Add 100 μL of ABTS/H2O2 solution to each well. Incubate 5 to 10 minutes while shaking. Remove any bubbles. If necessary stop reaction with the addition of 100 μL of 0.2M HCl per well.
(§2) Read assay on Dynatech MR7000 ELISA reader.

PDGFR = biological target: T2, PDGFR (Homo sapiens, UniProt P09619); assay: Assay for modulation of PDGFR activity (ELISA); assay type: biochemical; conditions: for pIC50: read-out: bio PDGFR IC50
T2 construct: expressed in transfected cells; host or cells: NIH3T3
T2 sequence (P09619 33-1106, species assumed): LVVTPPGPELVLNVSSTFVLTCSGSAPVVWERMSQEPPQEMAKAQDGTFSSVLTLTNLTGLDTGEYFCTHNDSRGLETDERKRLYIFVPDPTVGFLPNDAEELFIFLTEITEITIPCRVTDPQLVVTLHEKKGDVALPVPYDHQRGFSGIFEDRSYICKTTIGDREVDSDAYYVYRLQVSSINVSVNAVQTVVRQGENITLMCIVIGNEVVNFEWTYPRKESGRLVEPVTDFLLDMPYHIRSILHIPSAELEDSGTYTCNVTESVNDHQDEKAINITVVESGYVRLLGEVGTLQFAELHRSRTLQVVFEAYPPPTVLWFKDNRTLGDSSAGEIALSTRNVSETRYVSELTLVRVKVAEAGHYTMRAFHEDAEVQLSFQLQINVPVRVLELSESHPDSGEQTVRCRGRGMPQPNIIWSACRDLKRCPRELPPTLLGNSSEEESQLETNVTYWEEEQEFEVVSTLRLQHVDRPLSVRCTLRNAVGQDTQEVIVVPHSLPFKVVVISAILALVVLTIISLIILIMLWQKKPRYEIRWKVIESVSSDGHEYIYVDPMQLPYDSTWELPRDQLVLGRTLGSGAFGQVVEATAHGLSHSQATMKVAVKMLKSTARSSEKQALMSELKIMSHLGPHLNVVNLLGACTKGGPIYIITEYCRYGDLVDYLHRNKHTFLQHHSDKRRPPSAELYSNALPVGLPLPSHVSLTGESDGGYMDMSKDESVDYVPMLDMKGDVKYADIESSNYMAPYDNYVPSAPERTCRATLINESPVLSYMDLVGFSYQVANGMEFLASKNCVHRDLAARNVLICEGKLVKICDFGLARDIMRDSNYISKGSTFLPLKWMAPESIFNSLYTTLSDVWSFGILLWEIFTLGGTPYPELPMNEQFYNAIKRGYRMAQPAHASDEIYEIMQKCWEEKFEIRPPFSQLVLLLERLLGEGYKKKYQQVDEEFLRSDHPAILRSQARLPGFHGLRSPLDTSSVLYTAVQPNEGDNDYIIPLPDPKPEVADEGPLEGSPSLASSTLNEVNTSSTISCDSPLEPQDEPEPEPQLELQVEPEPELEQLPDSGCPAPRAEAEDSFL
Protocol: Using the following reagents, supplies, and methods, the ability of the compounds of the invention to modulate the in vitro activity of the PDGFR can be readily determined in an enzyme-linked immunosorbent assay (ELISA).
Monoclonal anti-PDGFR antibody (28D4C10) is stored at −20° C. in 50 mL tubes prior to use.
Lysates from PDGFR-β expressing NIH3T3 cells are obtained and stored at −80° C. in 1 mL aliquots. PDGFR-β expression in eukaryotic cells is well known in the art. Lysates are prepared by the following method. Place carrier dishes in ice trays, and after cooling, remove the media and replace with ice cold PBS. Remove the PBS and repeat. […] Take up lysate with a pipettor and add to a 30 mL centrifuge tube on ice. Vortex the tubes for 30-60 seconds and then centrifuge for 10 minutes at 7000 rpm in a J-20 rotor which has been precooled to below 0° C. Recover the supernatants and combine them in a 250 mL tube and place on ice. Perform protein determination to measure the total quantity of protein per mL of solution. Aliquot the lysate into 1 mL fractions and store at −80° C.
as §1, with “28D4C10 antibody” for “with SUMO1”, “μl” for “μL”, “and remove” for “Remove”, “antibody, 28D4C10,” for “SUMO1”
Add 150 μL of Blocking Buffer to each well. Incubate for 30 minutes at room temperature, with shaking and wash plate 3× with deionized water, then once with TBST. Pat plate on a paper towel to remove excess liquid and bubbles
Dilute lysate in PBS (10 mg lysate/100 μL PBS). Add 100 μL of diluted lysate to each well. Shake at room temperature for 60 min. Wash plate 3× with deionized water, then once with TBST. Pat plate on a paper towel to remove excess liquid and bubbles.
Add 80 μL Kinase Buffer to ELISA plate containing captured PDGFR.
Dilute drugs/extracts 1:10 (unless specified otherwise) in TBS+10% DMSO in 96-well polypropylene plates. (i.e., 10 μL compound+90 μL (TBS+10% DMSO)). Add 10 μL diluted drugs/extracts to ELISA plate. […] Incubate for 30 minutes while shaking at room temperature.
After 30 minutes stop reaction with addition of 10 μL of 200 mM EDTA pH 8.0 for 20 mM final in well. Wash 4× with deionized water, twice with TBST.
Incubate 30-45 minutes at room temperature, with shaking. Wash plate 3× with deionized water, then once with TBST. Pat plate on a paper towel to remove excess liquid and bubbles.
Incubate 30 minutes at room temperature with shaking. Wash plate 3× with deionized water, then once with TBST. Pat plate on a paper towel to remove excess liquid and bubbles.
Add 100 μL of ABTS/H2O2 solution to each well. Incubate 10 to 30 minutes while shaking. Remove any bubbles. If necessary stop reaction with the addition of 100 μL of 0.2M HCl per well
as §2

## Cc1cc(C(=O)NCCN2CCOCC2)[nH]c1C=C1C(=O)Nc2nccc(Nc3ccc(F)c(Cl)c3)c21 [Formula 3, 5-[4-(3-CHLORO-4-FLUORO-PHENYLAMINO)-2-OXO-1,2-DIHYDRO-PYRROLO[2,3-B]PYRIDIN-3-YLIDENEMETHYL]-4-METHYL-1H-PYRROLE-2-CARBOXYLIC ACID (2-MORPHOLIN-4-YL-ETHYL)-AMIDE]
EGFR
  pIC50: 6.29
PDGFR
  pIC50: < 4.00

## Cc1cc(C(=O)NCCN2CCOCC2)[nH]c1C=C1C(=O)Nc2ncnc(Nc3ccc(F)c(Cl)c3)c21 [Formula 4, 5-[4-(3-CHLORO-4-FLUORO-PHENYLAMINO)-6-OXO-6,7-DIHYDRO-PYRROLO[2,3-D]PYRIMIDIN-5-YLIDENEMETHYL]-4-METHYL-1H-PYRROLE-2-CARBOXYLIC ACID (2-MORPHOLIN-4-YL-ETHYL)-AMIDE HYDROCHLORIDE]
PDGFR
  pIC50: < 4.00

## O=C1Nc2ncnc(N3CCCCC3)c2C1=Cc1ccc(C(=O)NCCN2CCOCC2)[nH]1 [Formula 5, 5-(6-OXO-4-PIPERIDIN-1-YL-6,7-DIHYDRO-PYRROLO[2,3-D]PYRIMIDIN-5-YLIDENEMETHYL)-1H-PYRROLE-2-CARBOXYLIC ACID (2-MORPHOLIN-4-YL-ETHYL)-AMIDE]
EGFR
  pIC50: < 4.70
PDGFR
  pIC50: < 4.00

## Cc1cc(C(=O)NCCN2CCOCC2)[nH]c1C=C1C(=O)Nc2ncnc(Nc3ccc4c(ccn4Cc4ccccc4)c3)c21.Cl [Formula 6, 5-[4-(1-BENZYL-1H-INDOL-5-YLAMINO)-6-OXO-6,7-DIHYDRO-PYRROLO[2,3-D]PYRIMIDIN-5-YLIDENEMETHYL]-4-METHYL-1H-PYRROLE-2-CARBOXYLIC ACID (2-MORPHOLIN-4-YL-ETHYL)-AMIDE HYDROCHLORIDE]
EGFR; hydrochloride salt
  inhibition of EGFR (in words): inhibits EGFR at very low concentrations
EGFR
  pIC50: 9.00
PDGFR; hydrochloride salt
  effect on the activity of PDGFR (in words): relatively little effect on the activity of PDGFR
PDGFR
  pIC50: < 4.00

## Cc1[nH]c(C=C2C(=O)Nc3ncnc(Nc4ccc(F)c(Cl)c4)c32)c(C)c1CCCN1CCOCC1 [Formula 7, 4-(3-CHLORO-4-FLUORO-PHENYLAMINO)-5-[3,5-DIMETHYL-4-(3-MORPHOLIN-4-YL-PROPYL)-1H-PYRROL-2-YLMETHYLENE]-5,7-DIHYDRO-PYRROLO[2,3-D]PYRIMIDIN-6-ONE HYDROCHLORIDE]
EGFR
  pIC50: 6.80
PDGFR
  pIC50: 4.07

## Cc1nc[nH]c1C=C1C(=O)Nc2ncnc(Nc3ccc(F)c(Cl)c3)c21 [Formula 8]
EGFR
  pIC50: 7.22
PDGFR
  pIC50: 4.79

## Cc1cc(C)c(C=C2C(=O)Nc3ncnc(Nc4ccc(F)c(Cl)c4)c32)[nH]1 [Formula 9]
EGFR
  pIC50: 7.40
PDGFR
  pIC50: < 4.00

## Cc1cc(C(=O)NCCN2CCOCC2)[nH]c1C=C1C(=O)Nc2ncnc(N3CCN(C)CC3)c21 [Formula 10, 4-METHYL-5-[4-(4-METHYL-PIPERAZIN-1-YL)-6-OXO-6,7-DIHYDRO-PYRROLO[2,3-D]PYRIMIDIN-5-YLIDENEMETHYL]-1H-PYRROLE-2-CARBOXYLIC ACID (2-MORPHOLIN-4-YL-ETHYL)-AMIDE]
EGFR
  pIC50: < 4.70
PDGFR
  pIC50: < 4.00

## Cc1nc[nH]c1C=C1C(=O)Nc2ncnc(N3CCN(C)CC3)c21 [Formula 11]
EGFR
  pIC50: < 4.70
PDGFR
  pIC50: 4.55

## O=C1Nc2ncnc(Nc3ccc4c(ccn4Cc4ccccc4)c3)c2C1=Cc1ccc(C(=O)NCCN2CCOCC2)[nH]1 [Formula 12, 5-[4-(1-BENZYL-1H-INDOL-5-YLAMINO)-6-OXO-6,7-DIHYDRO-PYRROLO[2,3-D]PYRIMIDIN-5-YLIDENEMETHYL]-1H-PYRROLE-2-CARBOXYLIC ACID (2-MORPHOLIN-4-YL-ETHYL)-AMIDE HYDROCHLORIDE]
EGFR
  pIC50: 8.40
PDGFR
  pIC50: < 4.00

## O=C1Nc2ncnc(N3CCOCC3)c2C1=Cc1ccc(C(=O)NCCN2CCOCC2)[nH]1 [Formula 13, 5-(4-MORPHOLIN-4-YL-6-OXO-6,7-DIHYDRO-PYRROLO[2,3-D]PYRIMIDIN-5-YLIDENEMETHYL)-1H-PYRROLE-2-CARBOXYLIC ACID (2-MORPHOLIN-4-YL-ETHYL)-AMIDE]
EGFR
  pIC50: 4.72
PDGFR
  pIC50: < 4.00

## Cc1nc[nH]c1C=C1C(=O)Nc2ncnc(N3CCOCC3)c21 [Formula 14]
EGFR
  pIC50: < 4.70
PDGFR
  pIC50: < 4.00

## O=C1Nc2ncnc(Nc3ccc(F)c(Cl)c3)c2C1=Cc1ccc(C(=O)NCCN2CCOCC2)[nH]1 [Formula 15, 5-[4-(3-CHLORO-4-FLUORO-PHENYLAMINO)-6-OXO-6,7-DIHYDRO-PYRROLO[2,3-D]PYRIMIDIN-5-YLIDENEMETHYL]-1H-PYRROLE-2-CARBOXYLIC ACID (2-MORPHOLIN-4-YL-ETHYL)-AMIDE]
EGFR
  pIC50: 7.70
PDGFR
  pIC50: < 4.00

## C#Cc1cccc(Nc2ncnc3c2C(=Cc2ccc(C(=O)NCCN4CCOCC4)[nH]2)C(=O)N3)c1 [Formula 16, 5-[4-(3-ETHYNYL-PHENYLAMINO)-6-OXO-6,7-DIHYDRO-PYRROLO[2,3-D]PYRIMIDIN-5-YLIDENEMETHYL]-1H-PYRROLE-2-CARBOXYLIC ACID (2-MORPHOLIN-4-YL-ETHYL)-AMIDE HYDROCHLORIDE]
EGFR
  pIC50: 7.00
PDGFR
  pIC50: < 4.70

## C#Cc1cccc(Nc2ncnc3c2C(=Cc2[nH]c(C(=O)NCCN4CCOCC4)cc2C)C(=O)N3)c1 [Formula 17, 5-[4-(3-ETHYNYL-PHENYLAMINO)-6-OXO-6,7-DIHYDRO-PYRROLO[2,3-D]PYRIMIDIN-5-YLIDENEMETHYL]-4-METHYL-1H-PYRROLE-2-CARBOXYLIC ACID (2-MORPHOLIN-4-YL-ETHYL)-AMIDE]
EGFR
  pIC50: 7.70
PDGFR
  pIC50: < 4.70

## C#Cc1cccc(Nc2ncnc3c2C(=Cc2[nH]c(C)c(CCCN4CCOCC4)c2C)C(=O)N3)c1 [Formula 18]
EGFR
  pIC50: 6.74
PDGFR
  pIC50: 4.82

## CC(C)c1cc(CCC(=O)O)c(/C=C2\C(=O)Nc3ncnc(Nc4ccc(F)c(Cl)c4)c32)[nH]1 [Formula 27]
EGFR
  pIC50: 6.82
PDGFR
  pIC50: < 4.70

## Cc1c(C(=O)N2CCOCC2)c[nH]c1/C=C1\C(=O)Nc2ncnc(Nc3ccc(F)c(Cl)c3)c21 [Formula 31]
EGFR
  pIC50: 6.68
PDGFR
  pIC50: < 4.70

## Cc1cc(C(=O)N2CCOCC2)[nH]c1/C=C1\C(=O)N(C)c2ncnc(Nc3ccc(F)c(Cl)c3)c21 [Formula 34]
EGFR
  pIC50: < 4.70
PDGFR
  pIC50: < 4.70
